Data reported in BigSolDB 2.1.

## O=[N+]([O-])c1cc(F)c(F)cc1[N+](=O)[O-]
In 1,2-dichloroethane, 293.15 K
  solubility (mole fraction): 0.000981
In 1,2-dichloroethane, 298.15 K
  solubility (mole fraction): 0.00112
In 1,2-dichloroethane, 303.15 K
  solubility (mole fraction): 0.00128
In 1,2-dichloroethane, 308.15 K
  solubility (mole fraction): 0.00171
In 1,2-dichloroethane, 313.15 K
  solubility (mole fraction): 0.00229
In 1,2-dichloroethane, 318.15 K
  solubility (mole fraction): 0.00314
In 1,2-dichloroethane, 323.15 K
  solubility (mole fraction): 0.00416
In 1,2-dichloroethane, 328.15 K
  solubility (mole fraction): 0.00553
In 1,2-dichloroethane, 333.15 K
  solubility (mole fraction): 0.00752
In benzene, 293.15 K
  solubility (mole fraction): 0.00143
In benzene, 298.15 K
  solubility (mole fraction): 0.00152
In benzene, 303.15 K
  solubility (mole fraction): 0.00173
In benzene, 308.15 K
  solubility (mole fraction): 0.00216
In benzene, 313.15 K
  solubility (mole fraction): 0.00286
In benzene, 318.15 K
  solubility (mole fraction): 0.00384
In benzene, 323.15 K
  solubility (mole fraction): 0.00499
In benzene, 328.15 K
  solubility (mole fraction): 0.00647
In benzene, 333.15 K
  solubility (mole fraction): 0.0086
In chloroform, 293.15 K
  solubility (mole fraction): 0.000875
In chloroform, 298.15 K
  solubility (mole fraction): 0.000957
In chloroform, 303.15 K
  solubility (mole fraction): 0.00111
In chloroform, 308.15 K
  solubility (mole fraction): 0.00156
In chloroform, 313.15 K
  solubility (mole fraction): 0.00237
In chloroform, 318.15 K
  solubility (mole fraction): 0.00339
In chloroform, 323.15 K
  solubility (mole fraction): 0.00456
In chloroform, 328.15 K
  solubility (mole fraction): 0.00611
In ethanol, 293.15 K
  solubility (mole fraction): 0.00011
In ethanol, 298.15 K
  solubility (mole fraction): 0.00014
In ethanol, 303.15 K
  solubility (mole fraction): 0.000166
In ethanol, 308.15 K
  solubility (mole fraction): 0.000246
In ethanol, 313.15 K
  solubility (mole fraction): 0.000339
In ethanol, 318.15 K
  solubility (mole fraction): 0.00047
In ethanol, 323.15 K
  solubility (mole fraction): 0.000662
In ethanol, 328.15 K
  solubility (mole fraction): 0.000906
In ethanol, 333.15 K
  solubility (mole fraction): 0.00121
In ethyl acetate, 293.15 K
  solubility (mole fraction): 0.0019
In ethyl acetate, 298.15 K
  solubility (mole fraction): 0.00215
In ethyl acetate, 303.15 K
  solubility (mole fraction): 0.00241
In ethyl acetate, 308.15 K
  solubility (mole fraction): 0.0028
In ethyl acetate, 313.15 K
  solubility (mole fraction): 0.00342
In ethyl acetate, 318.15 K
  solubility (mole fraction): 0.00433
In ethyl acetate, 323.15 K
  solubility (mole fraction): 0.00554
In ethyl acetate, 328.15 K
  solubility (mole fraction): 0.00735
In ethyl acetate, 333.15 K
  solubility (mole fraction): 0.00951
In ethyl formate, 293.15 K
  solubility (mole fraction): 0.00271
In ethyl formate, 298.15 K
  solubility (mole fraction): 0.00284
In ethyl formate, 303.15 K
  solubility (mole fraction): 0.00303
In ethyl formate, 308.15 K
  solubility (mole fraction): 0.00339
In ethyl formate, 313.15 K
  solubility (mole fraction): 0.00402
In ethyl formate, 318.15 K
  solubility (mole fraction): 0.00493
In ethyl formate, 323.15 K
  solubility (mole fraction): 0.00613
In ethyl formate, 328.15 K
  solubility (mole fraction): 0.00775
In ethyl formate, 333.15 K
  solubility (mole fraction): 0.01
In isopropanol, 293.15 K
  solubility (mole fraction): 3.1e-05
In isopropanol, 298.15 K
  solubility (mole fraction): 5e-05
In isopropanol, 303.15 K
  solubility (mole fraction): 6.4e-05
In isopropanol, 308.15 K
  solubility (mole fraction): 8.9e-05
In isopropanol, 313.15 K
  solubility (mole fraction): 0.000123
In isopropanol, 318.15 K
  solubility (mole fraction): 0.000164
In isopropanol, 323.15 K
  solubility (mole fraction): 0.000215
In isopropanol, 328.15 K
  solubility (mole fraction): 0.000296
In isopropanol, 333.15 K
  solubility (mole fraction): 0.00038
In m-xylene, 293.15 K
  solubility (mole fraction): 0.00176
In m-xylene, 298.15 K
  solubility (mole fraction): 0.00206
In m-xylene, 303.15 K
  solubility (mole fraction): 0.00248
In m-xylene, 308.15 K
  solubility (mole fraction): 0.00303
In m-xylene, 313.15 K
  solubility (mole fraction): 0.00368
In m-xylene, 318.15 K
  solubility (mole fraction): 0.00444
In m-xylene, 323.15 K
  solubility (mole fraction): 0.00531
In m-xylene, 328.15 K
  solubility (mole fraction): 0.0062
In m-xylene, 333.15 K
  solubility (mole fraction): 0.00722
In mesitylene, 293.15 K
  solubility (mole fraction): 0.00238
In mesitylene, 298.15 K
  solubility (mole fraction): 0.00259
In mesitylene, 303.15 K
  solubility (mole fraction): 0.00279
In mesitylene, 308.15 K
  solubility (mole fraction): 0.00309
In mesitylene, 313.15 K
  solubility (mole fraction): 0.00348
In mesitylene, 318.15 K
  solubility (mole fraction): 0.00397
In mesitylene, 323.15 K
  solubility (mole fraction): 0.00459
In mesitylene, 328.15 K
  solubility (mole fraction): 0.0055
In mesitylene, 333.15 K
  solubility (mole fraction): 0.00652
In methanol, 293.15 K
  solubility (mole fraction): 0.00019
In methanol, 298.15 K
  solubility (mole fraction): 0.000263
In methanol, 303.15 K
  solubility (mole fraction): 0.000324
In methanol, 308.15 K
  solubility (mole fraction): 0.000401
In methanol, 313.15 K
  solubility (mole fraction): 0.000504
In methanol, 318.15 K
  solubility (mole fraction): 0.000632
In methanol, 323.15 K
  solubility (mole fraction): 0.000774
In methanol, 328.15 K
  solubility (mole fraction): 0.000956
In methanol, 333.15 K
  solubility (mole fraction): 0.00121
In n-butanol, 293.15 K
  solubility (mole fraction): 3.8e-05
In n-butanol, 298.15 K
  solubility (mole fraction): 6e-05
In n-butanol, 303.15 K
  solubility (mole fraction): 9.5e-05
In n-butanol, 308.15 K
  solubility (mole fraction): 0.000142
In n-butanol, 313.15 K
  solubility (mole fraction): 0.000198
In n-butanol, 318.15 K
  solubility (mole fraction): 0.000278
In n-butanol, 323.15 K
  solubility (mole fraction): 0.000384
In n-butanol, 328.15 K
  solubility (mole fraction): 0.000546
In n-butanol, 333.15 K
  solubility (mole fraction): 0.000785
In n-propanol, 293.15 K
  solubility (mole fraction): 4.5e-05
In n-propanol, 298.15 K
  solubility (mole fraction): 6.1e-05
In n-propanol, 303.15 K
  solubility (mole fraction): 8.5e-05
In n-propanol, 308.15 K
  solubility (mole fraction): 0.00012
In n-propanol, 313.15 K
  solubility (mole fraction): 0.000186
In n-propanol, 318.15 K
  solubility (mole fraction): 0.000278
In n-propanol, 323.15 K
  solubility (mole fraction): 0.000413
In n-propanol, 328.15 K
  solubility (mole fraction): 0.000595
In n-propanol, 333.15 K
  solubility (mole fraction): 0.00083
In o-xylene, 293.15 K
  solubility (mole fraction): 0.00213
In o-xylene, 298.15 K
  solubility (mole fraction): 0.00236
In o-xylene, 303.15 K
  solubility (mole fraction): 0.00277
In o-xylene, 308.15 K
  solubility (mole fraction): 0.00327
In o-xylene, 313.15 K
  solubility (mole fraction): 0.00377
In o-xylene, 318.15 K
  solubility (mole fraction): 0.00441
In o-xylene, 323.15 K
  solubility (mole fraction): 0.00513
In o-xylene, 328.15 K
  solubility (mole fraction): 0.00598
In o-xylene, 333.15 K
  solubility (mole fraction): 0.00701
In p-xylene, 293.15 K
  solubility (mole fraction): 0.00172
In p-xylene, 298.15 K
  solubility (mole fraction): 0.00199
In p-xylene, 303.15 K
  solubility (mole fraction): 0.00228
In p-xylene, 308.15 K
  solubility (mole fraction): 0.00267
In p-xylene, 313.15 K
  solubility (mole fraction): 0.00323
In p-xylene, 318.15 K
  solubility (mole fraction): 0.00395
In p-xylene, 323.15 K
  solubility (mole fraction): 0.00494
In p-xylene, 328.15 K
  solubility (mole fraction): 0.00647
In p-xylene, 333.15 K
  solubility (mole fraction): 0.0085
In tetrachloromethane, 298.15 K
  solubility (mole fraction): 2.2e-05
In tetrachloromethane, 303.15 K
  solubility (mole fraction): 4.7e-05
In tetrachloromethane, 308.15 K
  solubility (mole fraction): 9.5e-05
In tetrachloromethane, 313.15 K
  solubility (mole fraction): 0.000168
In tetrachloromethane, 318.15 K
  solubility (mole fraction): 0.000276
In tetrachloromethane, 323.15 K
  solubility (mole fraction): 0.000426
In tetrachloromethane, 328.15 K
  solubility (mole fraction): 0.000614
In tetrachloromethane, 333.15 K
  solubility (mole fraction): 0.000854
In toluene, 293.15 K
  solubility (mole fraction): 0.00135
In toluene, 298.15 K
  solubility (mole fraction): 0.00154
In toluene, 303.15 K
  solubility (mole fraction): 0.00201
In toluene, 308.15 K
  solubility (mole fraction): 0.00268
In toluene, 313.15 K
  solubility (mole fraction): 0.00349
In toluene, 318.15 K
  solubility (mole fraction): 0.00448
In toluene, 323.15 K
  solubility (mole fraction): 0.00551
In toluene, 328.15 K
  solubility (mole fraction): 0.00669
In toluene, 333.15 K
  solubility (mole fraction): 0.00781
